Data: ChEMBL document CHEMBL1201862, “PubChem BioAssay data set” (2004)
Active and inactive are the calls of the source.

What was measured:
Insulin-degrading enzyme [1] = target: T1, Insulin-degrading enzyme (Homo sapiens, UniProt P14735); assay: activators of recombinant IDE enzyme, dose response, counter-screen for IDE activator project, biochemical, fluorescence polarization (AID 588681)
T1 sequence (P14735 whole entry): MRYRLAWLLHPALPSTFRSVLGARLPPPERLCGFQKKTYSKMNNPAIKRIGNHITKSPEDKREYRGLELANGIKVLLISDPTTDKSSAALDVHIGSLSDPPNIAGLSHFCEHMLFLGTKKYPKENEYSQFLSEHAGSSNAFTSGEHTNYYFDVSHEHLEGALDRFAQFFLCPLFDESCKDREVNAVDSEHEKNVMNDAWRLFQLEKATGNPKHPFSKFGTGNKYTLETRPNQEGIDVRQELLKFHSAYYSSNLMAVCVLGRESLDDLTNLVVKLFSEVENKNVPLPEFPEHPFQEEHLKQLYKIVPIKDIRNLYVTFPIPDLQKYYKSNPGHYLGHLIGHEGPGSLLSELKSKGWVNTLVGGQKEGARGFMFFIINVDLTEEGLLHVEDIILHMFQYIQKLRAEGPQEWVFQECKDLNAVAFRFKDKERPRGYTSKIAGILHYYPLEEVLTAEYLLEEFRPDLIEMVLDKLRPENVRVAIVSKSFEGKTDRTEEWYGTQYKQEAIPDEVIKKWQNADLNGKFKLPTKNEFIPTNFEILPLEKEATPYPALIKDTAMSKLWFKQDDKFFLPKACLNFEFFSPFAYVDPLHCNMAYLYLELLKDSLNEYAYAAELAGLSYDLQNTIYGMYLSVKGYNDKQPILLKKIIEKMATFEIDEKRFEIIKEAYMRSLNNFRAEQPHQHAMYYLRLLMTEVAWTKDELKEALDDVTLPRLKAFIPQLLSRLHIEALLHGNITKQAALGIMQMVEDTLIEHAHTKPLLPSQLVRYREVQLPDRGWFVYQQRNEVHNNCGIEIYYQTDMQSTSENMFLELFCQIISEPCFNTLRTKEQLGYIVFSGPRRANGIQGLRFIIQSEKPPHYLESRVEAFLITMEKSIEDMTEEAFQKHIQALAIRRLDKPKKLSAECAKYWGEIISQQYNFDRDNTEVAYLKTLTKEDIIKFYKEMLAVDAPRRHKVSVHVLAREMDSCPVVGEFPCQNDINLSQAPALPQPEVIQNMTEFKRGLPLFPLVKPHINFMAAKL

Insulin-degrading enzyme [2] = target: T1, Insulin-degrading enzyme; assay: activators of endogenous IDE in HEK cells, dose response, cell-based, fluorescence polarization (AID 588439); format: functional
[3] = inhibitors of firefly luciferase expression or activity, dose response, H4 neuroglioma cells, luminescence (AID 1990); format: functional, cell-based
HEK293 = assay: inhibitors of LMP1-driven NF-kB reporter, dose response, cell-based, HEK293, luciferase, cherry-pick (AID 588343); format: functional; settings: Homo sapiens
Exodeoxyribonuclease V = Exodeoxyribonuclease V (Escherichia coli (strain K12), UniProt P04993+P07648+P08394); assay: E. coli RecBCD inhibitors, dose response, counter-screen for AddAB inhibitor project, absorbance, V66 E. coli, mutant T4 phage (AID 492957); format: functional, cell-based, Escherichia coli str. K-12 substr. MG1655
[4] = target: Heat shock protein HSP 90-alpha (Homo sapiens, UniProt P07900); format: functional, organism-based
[5] = C. albicans growth with fluconazole, confirmation, fluorescence, retest (AID 2467); format: functional, cell-based
Cytochrome P450 3A4 = Cytochrome P450 3A4 (Homo sapiens, UniProt P08684);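 also: CYP3A4 tested as one member of a cytochrome P450 panel screen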
[6] = target: Induced myeloid leukemia cell differentiation protein Mcl-1 (Homo sapiens, UniProt Q07820); format: functional
[7] = target: Likely tRNA 2'-phosphotransferase (Candida albicans (strain SC5314 / ATCC MYA-2876) (Yeast), UniProt Q5A7N4); assay: TPT1 tRNA phosphotransferase inhibitors, dose response, biochemical, fluorescence polarization (AID 2160)
Troponin, cardiac muscle = Troponin, cardiac muscle (Homo sapiens, UniProt P19429+P45379+P63316); assay: inhibitors of cardiac thin filament calcium sensitivity, dose response, biochemical, fluorescence, cardiac regulated thin filaments, triplicate IC50 (AID 504742); format: protein-complex assay
Ephrin type-A receptor 4 = Ephrin type-A receptor 4 (Mus musculus, UniProt Q03137); assay: inhibitors of EphA4 binding to KYL peptide, primary screen, biochemical, colorimetric, mouse EphA4 (AID 689); format: functional
Cytochrome P450 2C19 = Cytochrome P450 2C19 (Homo sapiens, UniProt P33261); assay: Cytochrome panel assay with activity outcomes. Panel member name: p450-cyp2c19 Compounds with AC50 equal or less than 10 uM are considered active; format: functional; settings: read-out: AC50
Cytochrome P450 2C19, sequence (P33261 whole entry): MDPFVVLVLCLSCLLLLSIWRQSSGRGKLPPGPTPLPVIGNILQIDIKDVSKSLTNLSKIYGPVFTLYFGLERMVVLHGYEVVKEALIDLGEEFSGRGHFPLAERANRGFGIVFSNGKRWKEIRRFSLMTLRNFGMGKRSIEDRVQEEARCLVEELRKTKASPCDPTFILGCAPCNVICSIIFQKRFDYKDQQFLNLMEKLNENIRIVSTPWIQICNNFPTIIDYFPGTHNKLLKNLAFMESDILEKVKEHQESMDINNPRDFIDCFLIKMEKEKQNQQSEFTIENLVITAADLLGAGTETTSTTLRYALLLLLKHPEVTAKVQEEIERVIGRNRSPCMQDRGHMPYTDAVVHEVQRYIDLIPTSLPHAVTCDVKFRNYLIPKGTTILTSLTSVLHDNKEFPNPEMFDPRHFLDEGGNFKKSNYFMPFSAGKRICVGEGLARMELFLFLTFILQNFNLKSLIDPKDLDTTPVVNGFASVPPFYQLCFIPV

Ephrin type-A receptor 4, sequence (Q03137 whole entry): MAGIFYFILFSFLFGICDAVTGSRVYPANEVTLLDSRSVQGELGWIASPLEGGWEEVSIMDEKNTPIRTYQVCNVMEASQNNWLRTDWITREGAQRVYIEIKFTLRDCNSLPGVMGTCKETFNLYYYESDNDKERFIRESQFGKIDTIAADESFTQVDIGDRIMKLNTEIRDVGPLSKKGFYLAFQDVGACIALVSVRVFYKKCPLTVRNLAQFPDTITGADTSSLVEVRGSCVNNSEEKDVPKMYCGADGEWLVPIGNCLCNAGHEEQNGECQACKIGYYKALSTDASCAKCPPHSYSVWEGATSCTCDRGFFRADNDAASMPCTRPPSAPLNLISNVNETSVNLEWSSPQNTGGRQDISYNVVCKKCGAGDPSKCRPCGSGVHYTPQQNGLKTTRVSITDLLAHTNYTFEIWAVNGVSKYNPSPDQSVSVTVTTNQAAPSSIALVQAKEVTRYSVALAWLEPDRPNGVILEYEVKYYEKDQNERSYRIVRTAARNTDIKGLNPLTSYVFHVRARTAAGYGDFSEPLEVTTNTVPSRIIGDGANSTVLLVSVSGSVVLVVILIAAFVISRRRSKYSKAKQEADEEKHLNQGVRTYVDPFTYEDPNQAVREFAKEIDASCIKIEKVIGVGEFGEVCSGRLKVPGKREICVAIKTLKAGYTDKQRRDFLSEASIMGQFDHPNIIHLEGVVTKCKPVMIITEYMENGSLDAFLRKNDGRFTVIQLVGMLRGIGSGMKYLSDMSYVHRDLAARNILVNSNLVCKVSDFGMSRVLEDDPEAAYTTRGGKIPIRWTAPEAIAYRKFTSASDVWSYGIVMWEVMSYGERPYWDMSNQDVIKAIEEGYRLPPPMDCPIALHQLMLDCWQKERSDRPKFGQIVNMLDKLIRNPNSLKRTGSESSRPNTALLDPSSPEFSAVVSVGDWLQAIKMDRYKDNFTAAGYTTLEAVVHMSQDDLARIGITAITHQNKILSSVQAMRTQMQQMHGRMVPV
Induced myeloid leukemia cell differentiation protein Mcl-1, sequence (Q07820 whole entry): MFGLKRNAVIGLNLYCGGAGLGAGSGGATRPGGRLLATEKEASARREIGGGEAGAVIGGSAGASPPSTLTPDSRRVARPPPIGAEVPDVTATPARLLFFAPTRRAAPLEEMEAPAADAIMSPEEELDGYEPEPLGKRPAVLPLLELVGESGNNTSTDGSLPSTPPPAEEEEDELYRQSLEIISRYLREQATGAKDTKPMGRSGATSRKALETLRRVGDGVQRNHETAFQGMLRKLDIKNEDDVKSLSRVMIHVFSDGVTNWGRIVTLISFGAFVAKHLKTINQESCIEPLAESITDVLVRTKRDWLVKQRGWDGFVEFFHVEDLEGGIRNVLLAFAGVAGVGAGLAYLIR
Cytochrome P450 3A4, sequence (P08684 whole entry): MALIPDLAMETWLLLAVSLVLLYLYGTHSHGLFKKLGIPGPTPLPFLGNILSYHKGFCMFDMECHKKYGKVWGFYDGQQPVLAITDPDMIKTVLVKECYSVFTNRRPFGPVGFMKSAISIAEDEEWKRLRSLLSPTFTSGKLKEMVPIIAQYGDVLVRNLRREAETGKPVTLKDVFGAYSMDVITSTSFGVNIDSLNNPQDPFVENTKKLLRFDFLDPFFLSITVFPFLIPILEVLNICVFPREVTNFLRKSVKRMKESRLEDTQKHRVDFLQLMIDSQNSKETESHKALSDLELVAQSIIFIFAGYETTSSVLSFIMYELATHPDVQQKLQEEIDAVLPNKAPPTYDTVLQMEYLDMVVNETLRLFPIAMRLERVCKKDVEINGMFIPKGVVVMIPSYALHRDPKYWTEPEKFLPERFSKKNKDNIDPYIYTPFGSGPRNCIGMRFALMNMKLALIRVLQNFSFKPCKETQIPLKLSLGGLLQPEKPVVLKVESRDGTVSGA
Likely tRNA 2'-phosphotransferase, sequence (Q5A7N4 whole entry): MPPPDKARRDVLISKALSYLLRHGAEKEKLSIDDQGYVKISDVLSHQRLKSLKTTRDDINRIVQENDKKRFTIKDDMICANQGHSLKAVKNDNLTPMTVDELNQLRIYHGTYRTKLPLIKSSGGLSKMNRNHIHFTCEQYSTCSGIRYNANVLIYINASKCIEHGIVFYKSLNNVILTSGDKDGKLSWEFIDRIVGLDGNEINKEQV

For `O=C1CCN2C=Nc3cccc4ccc1c2c34`, the EC50 (Insulin-degrading enzyme [1]) was > 54.7 µM (inactive) and the EC50 (Insulin-degrading enzyme [2]) was > 54.7 µM (inactive).

In the case of `Oc1ccc2ccccc2c1/C=N/Nc1nnc(-c2ncc[nH]2)c2ccccc12`, the EC50 [3] is reported as 0.178 µM (active), the AC50 (HEK293) is reported as 1.79 µM (active) and the IC50 (Exodeoxyribonuclease V) is reported as > 119 µM (inactive). The AC50 [4] was 3.53 µM (active) and the EC50 [5] was 0.714 µM (active).

With `CC(C)C(C(=O)O)N1C(=O)/C(=C/C=C/c2ccco2)SC1=S` (stereo not drawn) the AC50 (Cytochrome P450 3A4) was 31.6 µM (inconclusive), the IC50 [6] was > 54 µM (active) and the IC50 [7] was 20.5 µM (not active). For the same compound, the IC50 (Troponin, cardiac muscle) was 22.4 µM (inactive), the IC50 (Ephrin type-A receptor 4) was 5.26 µM (active) and the AC50 (Cytochrome P450 2C19) was 10 µM (inconclusive).
